Columns and labels:
[1] = system: interleukin 5 (IL-5) production; test: Cytokine production inhibitory effect: IL-5 production by murine spleen cells treated with anti-mouse CD3 antibody and IL-2 (ELISA); format: cell-based, Balb/c mice; settings: test compound 100 ppm, anti-CD3 antibody + IL-2, 40 to 48 hours, read-out: IL-5 production inhibitory ratio (%)
[2] = system: interferon γ (IFN-γ) production; test: Cytokine production inhibitory effect: IFN-γ production by murine spleen cells treated with anti-mouse CD3 antibody and IL-2 (ELISA); format: cell-based, Balb/c mice; settings: test compound 100 ppm, anti-CD3 antibody + IL-2, 40 to 48 hours, read-out: IFN-γ production inhibitory ratio (%)

With O=C(Nc1ccc(OCc2ccccc2)cc1)c1cc([N+](=O)[O-])ccc1Cl [compound 77] the inhibition at 100 ppm [1] was 74%, the inhibition at 100 ppm [2] was 50% and the melting point was 176 to 178 °C.
O=C(Nc1ccc(S(=O)(=O)Nc2ccccn2)cc1)c1cc([N+](=O)[O-])ccc1Cl [compound 136] gave an inhibition at 100 ppm [1] of 98%, an inhibition at 100 ppm [2] of 100% and a melting point of 178 to 181 °C.
Cc1cc(C23CC4CC(CC(C4)C2)C3)ccc1NC(=O)c1ccccc1Cl [compound 22] gave an inhibition at 100 ppm [1] of 100%, an inhibition at 100 ppm [2] of 100% and a melting point of 154 °C.
Compound O=C(Nc1ccc(Sc2ccccc2)cc1)c1cc([N+](=O)[O-])ccc1Cl [compound 69] has an inhibition at 100 ppm [1] of 100%, an inhibition at 100 ppm [2] of 100% and a melting point of 180 to 183 °C.
COc1ccc([N+](=O)[O-])c(OC)c1C(=O)Nc1ccc(C23CC4CC(CC(C4)C2)C3)cc1C [compound 52] gave an inhibition at 100 ppm [1] of 75%, an inhibition at 100 ppm [2] of 96% and a melting point of 115 °C.
For O=C(Nc1ccc(Sc2ccc(C(F)(F)F)cn2)cc1)c1cc([N+](=O)[O-])ccc1Cl [compound 32], the inhibition at 100 ppm [1] was 99%, the inhibition at 100 ppm [2] was 98% and the melting point was 189 °C.
O=C(Nc1ccc(Oc2ncc(C(F)(F)F)cc2Cl)cc1)c1cc([N+](=O)[O-])ccc1Cl [compound 64] gave an inhibition at 100 ppm [1] of 98%, an inhibition at 100 ppm [2] of 99% and a melting point of 203 °C.
Cc1cc(NS(=O)(=O)c2cc([N+](=O)[O-])ccc2Cl)ccc1Oc1ncc(C(F)(F)F)cc1Cl [compound 117] gave an inhibition at 100 ppm [1] of 100%, an inhibition at 100 ppm [2] of 100% and a melting point of 233 to 236 °C.
Compound Cc1cc(C23CC4CC(CC(C4)C2)C3)ccc1NC(=O)c1ccc([N+](=O)[O-])cc1 [compound 74] has an inhibition at 100 ppm [1] of 43%, an inhibition at 100 ppm [2] of 10% and a melting point of 289 to 290 °C.
In the case of Cc1cc(C23CC4CC(CC(C4)C2)C3)ccc1NC(=O)c1c(Cl)ccc([N+](=O)[O-])c1Cl [compound 53], the inhibition at 100 ppm [1] is reported as 94%, the inhibition at 100 ppm [2] is reported as 93% and the melting point is reported as 224 °C.
With O=C(Nc1ccc(CO)cc1)c1cc([N+](=O)[O-])ccc1Cl [compound 92] the inhibition at 100 ppm [1] was 99%, the inhibition at 100 ppm [2] was 100% and the melting point was 201 to 204 °C.
With O=C(Nc1ccc(CSc2ncc(C(F)(F)F)cc2Cl)cc1)c1cc([N+](=O)[O-])ccc1Cl [compound 82] the inhibition at 100 ppm [1] was 90%, the inhibition at 100 ppm [2] was 99% and the melting point was 207 to 208 °C.
Compound O=C(Nc1ccc(OCC23CC4CC(CC(C4)C2)C3)cc1)c1cc([N+](=O)[O-])ccc1Cl [compound 110] has an inhibition at 100 ppm [1] of 99%, an inhibition at 100 ppm [2] of 100% and a melting point of 175 to 180 °C.
Work on O=C(Nc1ccc(SCc2ccccc2)cc1)c1cc([N+](=O)[O-])ccc1Cl [compound 78] yielded an inhibition at 100 ppm [1] of 78%, an inhibition at 100 ppm [2] of 91% and a melting point of 156 to 157 °C.
Compound O=C(Nc1ccc(Oc2ncc(C(F)(F)F)cc2Cl)c(N2CCCCC2)c1)c1cc([N+](=O)[O-])ccc1Cl [compound 131] has an inhibition at 100 ppm [1] of 100%, an inhibition at 100 ppm [2] of 100% and a melting point of 194 to 198 °C.
Work on O=C(Nc1ccc(Oc2ncc(C(F)(F)F)cc2Cl)cc1C(=O)O)c1cc([N+](=O)[O-])ccc1Cl [compound 101] yielded an inhibition at 100 ppm [1] of 100%, an inhibition at 100 ppm [2] of 100% and a melting point of 240 to 245 °C.
Compound Cc1cc(C23CC4CC(CC(C4)C2)C3)ccc1NC(=O)c1cc(C(F)(F)F)ccc1Cl [compound 70] has an inhibition at 100 ppm [1] of 98%, an inhibition at 100 ppm [2] of 99% and a melting point of 69 °C.
In the case of Cc1cc(C23CC4CC(CC(C4)C2)C3)ccc1NC(=O)c1cccc([N+](=O)[O-])c1Cl [compound 60], the inhibition at 100 ppm [1] is reported as 96%, the inhibition at 100 ppm [2] is reported as 93% and the melting point is reported as 222 °C.
For Cc1cc(NC(=O)c2cc(C#N)ccc2Cl)ccc1Oc1ncc(C(F)(F)F)cc1Cl [compound 118], the inhibition at 100 ppm [1] was 78%, the inhibition at 100 ppm [2] was 47% and the melting point was 221 to 223 °C.
With O=C(Nc1ccc(N2CCOCC2)cc1)c1cc([N+](=O)[O-])ccc1Cl [compound 66] the inhibition at 100 ppm [1] was 95%, the inhibition at 100 ppm [2] was 91% and the melting point was 195 °C.
O=C(Nc1ccc(C(F)(F)F)cc1)c1cc([N+](=O)[O-])ccc1Cl [compound 30] gave an inhibition at 100 ppm [1] of 100%, an inhibition at 100 ppm [2] of 100% and a melting point of 176 °C.
With O=C(Nc1ccc(S(=O)(=O)Nc2ncccn2)cc1)c1cc([N+](=O)[O-])ccc1Cl [compound 137] the inhibition at 100 ppm [1] was 98%, the inhibition at 100 ppm [2] was 98% and the melting point was 252 to 258 °C.
Cc1cc(NC(=O)c2cc([N+](=O)[O-])ccc2Br)ccc1Oc1ncc(C(F)(F)F)cc1Cl [compound 120] gave an inhibition at 100 ppm [1] of 84%, an inhibition at 100 ppm [2] of 35% and a melting point of 246 to 248 °C.
With Cc1cc(C23CC4CC(CC(C4)C2)C3)ccc1NC(=O)c1cc([N+](=O)[O-])ccc1Cl [Compound No. 1] the inhibition at 100 ppm [1] was 96%, the inhibition at 100 ppm [2] was 90% and the melting point was 219 °C.
Compound CSc1ccc(NC(=O)c2cc([N+](=O)[O-])ccc2Cl)cc1 [compound 29] has an inhibition at 100 ppm [1] of 98%, an inhibition at 100 ppm [2] of 100% and a melting point of 162 °C.
Compound O=C(Nc1ccc(Oc2ccc(C(F)(F)F)cn2)c(Cl)c1)c1ccc(Cl)cc1 [compound 5] has an inhibition at 100 ppm [1] of 76%, an inhibition at 100 ppm [2] of 83% and a melting point of 186 to 188 °C.
For NC(=O)c1cc(NC(=O)c2cc([N+](=O)[O-])ccc2Cl)ccc1Oc1ncc(C(F)(F)F)cc1Cl [compound 116], the inhibition at 100 ppm [1] was 100%, the inhibition at 100 ppm [2] was 99% and the melting point was 239 to 244 °C.
With O=C(Nc1ccc(S(=O)(=O)Nc2nccs2)cc1)c1cc([N+](=O)[O-])ccc1Cl [compound 142] the inhibition at 100 ppm [1] was 95%, the inhibition at 100 ppm [2] was 99% and the melting point was 140 to 147 °C.
Work on O=C(Nc1ccc(Oc2ncc(C(F)(F)F)cc2Cl)c(O)c1)c1cc([N+](=O)[O-])ccc1Cl [compound 126] yielded an inhibition at 100 ppm [1] of 100%, an inhibition at 100 ppm [2] of 100% and a melting point of 194 to 197 °C.
Cc1cc(C23CC4CC(CC(C4)C2)C3)ccc1NC(=O)c1cccc([N+](=O)[O-])c1 [compound 23] gave an inhibition at 100 ppm [1] of 100%, an inhibition at 100 ppm [2] of 100% and a melting point of 177 °C.
For O=C(Nc1ccc(OCc2ncc(C(F)(F)F)cc2Cl)cc1)c1cc([N+](=O)[O-])ccc1Cl [Compound No. 135, N-(4-(3-chloro-5-trifluoromethyl-2-pyridylmethyloxy)phenyl)-2-chloro-5-nitrobenzamide], the inhibition at 100 ppm [1] was 62%, the inhibition at 100 ppm [2] was 33% and the melting point was 193 to 195 °C.
O=C(c1ccccc1)c1ccc(NC(=O)c2cc([N+](=O)[O-])ccc2Cl)cc1 [compound 51] showed an inhibition at 100 ppm [1] of 99%, an inhibition at 100 ppm [2] of 100% and a melting point of 226 °C.
For O=C(Nc1ccc(Oc2ccc(C(F)(F)F)cc2Cl)cc1)c1cc([N+](=O)[O-])ccc1Br [compound 96], the inhibition at 100 ppm [1] was 100%, the inhibition at 100 ppm [2] was 100% and the melting point was 167 to 172 °C.
Work on O=C(Nc1ccc(OC2C3CC4CC(C3)CC2C4)cc1)c1cc([N+](=O)[O-])ccc1Cl (stereo not drawn) [compound 111] yielded an inhibition at 100 ppm [1] of 99%, an inhibition at 100 ppm [2] of 99% and a melting point of 178 to 180 °C.
For Cc1ccc(S(=O)(=O)Nc2ccc(NC(=O)c3cc([N+](=O)[O-])ccc3Cl)cc2)cc1 [compound 145], the inhibition at 100 ppm [1] was 100%, the inhibition at 100 ppm [2] was 100% and the melting point was 165 to 172 °C.
O=C(Nc1ccc(S(=O)(=O)NC2=NC3C=CC=CC3N=C2)cc1)c1cc([N+](=O)[O-])ccc1Cl (stereo not drawn) [compound 138] gave an inhibition at 100 ppm [1] of 99%, an inhibition at 100 ppm [2] of 100% and a melting point of 146 to 150 °C.
For O=C(Nc1nc2ccccc2s1)c1cc([N+](=O)[O-])ccc1Cl [compound 143], the inhibition at 100 ppm [1] was 97%, the inhibition at 100 ppm [2] was 100% and the melting point was 221 to 227 °C.

Reference: patent publication US7132546B2, “Aniline derivatives or salts thereof and cytokine production inhibitors containing the same” (Ishihara Sangyo Kaisha, Ltd., priority 2000, dated 2006)
